Here are results for 22 compounds from patent US12157730B2, “Heteroaryl derivative, method for producing same, and pharmaceutical composition comprising same as effective component” (VORONOI INC., priority 2019, dated 2024).

The target of the test is T1, Ba/F3 cell EGFR Exon20 ins NPH (Homo sapiens, UniProt P00533, INS773NPH).
T1 construct: expressed in transfected cells; host or cells: Ba/F3
Put plainly: Ba/F3 cell proliferation suppression, EGFR Exon20 ins NPH. It is filed as cell-based. As to conditions: GI50 class; Ba/F3 cell line with NPH inserted at Exon20 of EGFR; 72 hours. The gist of the method:
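After 72 h compound exposure (twelve 3-fold steps, 0.3 nM–50 um final), live cells were measured by CellTiter-Glo luminescence and growth expressed as % of control to derive GI50. Cells were seeded at 3000–5000 per well a day earlier; Ba/F3 medium contained IL-3; three repeats.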
As for `C=CC(=O)Nc1cc(Nc2cc(N3OCC[C@@H]3c3cc(F)cc(F)c3)ncn2)c(OC)cc1N1CCO[C@@H](C)C1` [compound 337, N-(5-((6-((R)-3-(3,5-difluorophenyl)isoxazolidine-2-yl)pyrimidine-4-yl)amino)-4-methoxy-2-((S)-2-methylmorpholino)phenyl)acrylamide], the “Ba/F3 (NPH) Activity” value is “B (50 nM ≤ GI50 < 500 nM)”. Next, `C=CC(=O)Nc1cc(Nc2cc(N3OCC[C@@H]3c3ccc(Cl)c(F)c3)ncn2)c(OC)cc1N1C[C@H]2C[C@@H]1CO2` [compound 863, N-(2-((1R,4R)-2-oxa-5-azabicyclo [2.2.1]heptane-5-yl)-5-((6-((R)-3-(4-chloro-3-fluorophenyl)isoxazolidine-2-yl)pyrimidine-4-yl)amino)-4-methoxyphenyl) acrylamide]: “A (GI50 < 50 nM)”; `C=CC(=O)Nc1cc(Nc2cc(N3OCC[C@@H]3c3ccccc3)ncn2)c(OC)cc1N1CCC(N2C[C@H]3C[C@@H]2CN3CC)CC1` [compound 738, N-(2-(4-((1R,4R)-5-ethyl-2,5-diazabicyclo [2.2.1]heptane-2-yl)piperidine-1-yl)-4-methoxy-5-((6-((R)-3-phenylisoxazolidine-2-yl)pyrimidine-4-yl)amino)phenyl) acrylamide]: “A (GI50 < 50 nM)”. With `C=CC(=O)Nc1cc(Nc2cc(N3OCC[C@@H]3c3cccc(F)c3F)ncn2)c(OC)cc1N1CCN(C)[C@H](C)C1` [compound 884, N-(5-((6-((R)-3-(2,3-difluorophenyl)isoxazolidine-2-yl)pyrimidine-4-yl)amino)-2-((R)-3,4-dimethylpiperazine-1-yl)-4-methoxyphenyl) acrylamide], the “Ba/F3 (NPH) Activity” value is “A (GI50 < 50 nM)”. With `C=CC(=O)Nc1cc(Nc2cc(N3OCC[C@@H]3c3cc(F)cc(F)c3)ncn2)c(OC)cc1N1CCC(N2CCO[C@@H](C)C2)CC1` [compound 757, N-(5-((6-((R)-3-(3,5-difluorophenyl)isoxazolidine-2-yl)pyrimidine-4-yl)amino)-4-methoxy-2-(4-((S)-2-methylmorpholino)piperidine-1-yl)phenyl) acrylamide], the “Ba/F3 (NPH) Activity” value was “A (GI50 < 50 nM)”. The entry for `C=CC(=O)Nc1cc(Nc2cc(N3OCC[C@@H]3Cc3cccnc3)ncn2)c(OC)cc1N1CCC(N2CCN(C3CC3)CC2)CC1` [compound 985, N-(2-(4-(4-cyclopropylpiperazine-1-yl)piperidine-1-yl)-4-methoxy-5-((6-((S)-3-(pyridine-3-ylmethyl)isoxazolidine-2-yl)pyrimidine-4-yl)amino)phenyl) acrylamide] is “C (500 nM ≤ GI50 < 5000 nM)”. On to `C=CC(=O)Nc1cc(Nc2cc(N3OCC[C@@H]3c3cc(F)cc(F)c3)ncn2)c(OC)cc1N1CCC(N2CCN(C3CCC3)CC2)CC1` [Example 68, N-(2-(4-(4-cyclobutylpiperazine-1-yl)piperidine-1-yl)-5-((6-((R)-3-(3,5-difluorophenyl)isoxazolidine-2-yl)pyrimidine-4-yl)amino)-4-methoxyphenyl) acrylamide], for which the “Ba/F3 (NPH) Activity” value is “A (GI50 < 50 nM)”.

In the case of `C=CCN1CCN(C2CCN(c3cc(OC)c(Nc4cc(N5OCC[C@@H]5c5cc(F)cc(F)c5)ncn4)cc3NC(=O)C=C)CC2)CC1` [Example 87, N-(2-(4-(4-allylpiperazine-1-yl)piperidine-1-yl)-5-((6-((R)-3-(3,5-difluorophenyl)isoxazolidine-2-yl)pyrimidine-4-yl)amino)-4-methoxyphenyl) acrylamide], the “Ba/F3 (NPH) Activity” value is on record as “A (GI50 < 50 nM)”. In the case of `C=CC(=O)Nc1cc(Nc2cc(N3OCC[C@@H]3c3cc(F)cc(Cl)c3)ncn2)c(OC)cc1N1CCC(N2CCN(C3CC3)C[C@H]2C)CC1` [Example 159, N-(5-((6-((R)-3-(3-chloro-5-fluorophenyl)isoxazolidine-2-yl)pyrimidine-4-yl)amino)-2-(4-((R)-4-cyclopropyl-2-methylpiperazine-1-yl)piperidine-1-yl)-4-methoxyphenyl) acrylamide], the “Ba/F3 (NPH) Activity” value was “A (GI50 < 50 nM)”. Consider `C=CC(=O)Nc1cc(Nc2cc(N3OCC[C@@H]3c3cc(F)ccc3F)ncn2)c(OC)cc1N1CCC(N2CCC3(CC2)CC3)CC1` [compound 828, N-(2-(4-(6-azaspiro[2.5]octan-6-yl)piperidine-1-yl)-5-((6-((R)-3-(2,5-difluorophenyl)isoxazolidine-2-yl)pyrimidine-4-yl)amino)-4-methoxyphenyl) acrylamide], for which the “Ba/F3 (NPH) Activity” value is “A (GI50 < 50 nM)”. With `C=CC(=O)Nc1cc(Nc2cc(N3OCC[C@@H]3c3ccc(Cl)cc3)ncn2)c(OC)cc1N1CCC(N2CC[C@@H](N(C)C)C2)CC1` [compound 783, N-(5-((6-((R)-3-(4-chlorophenyl)isoxazolidine-2-yl)pyrimidine-4-yl)amino)-2-(4-((R)-3-(dimethylamino)pyrolidine-1-yl)piperidine-1-yl)-4-methoxyphenyl) acrylamide], the “Ba/F3 (NPH) Activity” value is recorded as “A (GI50 < 50 nM)”.

Consider `C=CC(=O)Nc1cc(Nc2cc(N3OCC[C@@H]3c3cccc(C)c3F)ncn2)c(OC)cc1N1CCC(N2C[C@@H]3C[C@H]2CO3)CC1` [compound 362, N-(2-(4-((1S,4S)-2-oxa-5-azabicyclo[2.2.1]heptane-5-yl)piperidine-1-yl)-5-((6-((R)-3-(2-fluoro-3-methylphenyl)isoxazolidine-2-yl)pyrimidine-4-yl)amino)-4-methoxyphenyl) acrylamide], for which the “Ba/F3 (NPH) Activity” value is “A (GI50 < 50 nM)”. Turning to `C=CC(=O)Nc1cc(Nc2cc(N3OCC[C@@H]3Cc3cccc(Cl)c3Cl)ncn2)c(OC)cc1N1CCN(C)CC1` [compound 983, N-(5-((6-((S)-3-(2,3-dichlorobenzyl)isoxazolidine-2-yl)pyrimidine-4-yl)amino)-4-methoxy-2-(4-methylpiperazine-1-yl)phenyl)acrylamide], the “Ba/F3 (NPH) Activity” value is reported as “A (GI50 < 50 nM)”. In the case of `C=CC(=O)Nc1cc(Nc2cc(N3OCC[C@@H]3c3cccc(C#N)c3)ncn2)c(OC)cc1N1C[C@@H]2CCN(C)[C@@H]2C1` [compound 332, N-(5-((6-((R)-3-(3-cyanophenyl)isoxazolidine-2-yl)pyrimidine-4-yl)amino)-4-methoxy-2-((3aS,6aS)-1-methylhexahydropyrrolo [3,4-b]pyrrole-5(1H)-yl)phenyl)acrylamide], the “Ba/F3 (NPH) Activity” value is recorded as “A (GI50 < 50 nM)”. Turning to `C=CC(=O)Nc1cc(Nc2cc(N3OCC[C@@H]3c3cc(F)cc(F)c3)ncn2)c(OC)cc1N1CCC(N2CCN(CC3CC3)CC2)CC1` [Example 92, N-(2-(4-(4-(cyclopropylmethyl)piperazine-1-yl)piperidine-1-yl)-5-((6-((R)-3-(3,5-difluorophenyl)isoxazolidine-2-yl)pyrimidine-4-yl)amino)-4-methoxyphenyl) acrylamide], the “Ba/F3 (NPH) Activity” value is recorded as “A (GI50 < 50 nM)”. Consider `C=CC(=O)Nc1cc(Nc2cc(N3OCC[C@@H]3c3cc(F)ccc3F)ncn2)c(OC)cc1N1CCN(C2CC2)CC1` [compound 299, N-(2-(4-cyclopropylpiperazine-1-yl)-5-((6-((R)-3-(2,5-difluorophenyl)isoxazolidine-2-yl)pyrimidine-4-yl)amino)-4-methoxyphenyl) acrylamide], for which the “Ba/F3 (NPH) Activity” value is given as “A (GI50 < 50 nM)”.

On to `C=CC(=O)Nc1cc(Nc2cc(N3OCC[C@@H]3Cc3cccc(F)c3C)ncn2)c(OC)cc1N1CCC(N2C[C@H]3C[C@@H]2CO3)CC1` [compound 1039, N-(2-(4-((1R,4R)-2-oxa-5-azabicyclo [2.2.1]heptane-5-yl)piperidine-1-yl)-5-((6-((S)-3-(3-fluoro-2-methylbenzyl)isoxazolidine-2-yl)pyrimidine-4-yl)amino)-4-methoxyphenyl) acrylamide], for which the “Ba/F3 (NPH) Activity” value was “A (GI50 < 50 nM)”. In the case of `C=CC(=O)Nc1cc(Nc2cc(N3OCC[C@@H]3Cc3ccccc3)ncn2)c(OC)cc1N1CC[C@@H](N(C)C)C1` [compound 964, N-(5-((6-((S)-3-benzylisoxazolidine-2-yl)pyrimidine-4-yl)amino)-2-((R)-3-(dimethylamino)pyrolidine-1-yl)-4-methoxyphenyl) acrylamide], the “Ba/F3 (NPH) Activity” value is on record as “A (GI50 < 50 nM)”.

As to `C=CC(=O)Nc1cc(Nc2cc(N3OCC[C@@H]3c3ccccc3)ncn2)c(OC)cc1N1CCC(N2CCN(CCN(C)C)CC2)CC1` [compound 739, N-(2-(4-(4-(2-(dimethylamino)ethyl)piperazine-1-yl)piperidine-1-yl)-4-methoxy-5-((6-((R)-3-phenylisoxazolidine-2-yl)pyrimidine-4-yl)amino)phenyl) acrylamide], the “Ba/F3 (NPH) Activity” value was “B (50 nM ≤ GI50 < 500 nM)”. With `C=CC(=O)Nc1cc(Nc2cc(N3OCC[C@@H]3c3ccccc3)ncn2)c(OC)cc1N1CCC(N2CCN(C(C)C)CC2)CC1` [Example 283, N-(2-(4-(4-isopropylpiperazine-1-yl)piperidine-1-yl)-4-methoxy-5-((6-((R)-3-phenylisoxazolidine-2-yl)pyrimidine-4-yl)amino)phenyl) acrylamide], the “Ba/F3 (NPH) Activity” value was “A (GI50 < 50 nM)”. `C=CC(=O)Nc1cc(Nc2cc(N3OCC[C@@H]3c3ccc(C)nc3)ncn2)c(OC)cc1N1CC[C@@H](N(C)C)C1` [Example 221, N-(2-((R)-3-(dimethylamino)pyrolidine-1-yl)-4-methoxy-5-((6-((R)-3-(6-methylpyridine-3-yl)isoxazolidine-2-yl)pyrimidine-4-yl)amino)phenyl) acrylamide]: the “Ba/F3 (NPH) Activity” value is recorded as “B (50 nM ≤ GI50 < 500 nM)”. Turning to `C=CC(=O)Nc1cc(Nc2cc(N3OCC[C@@H]3Cc3ccccc3)ncn2)c(OC)cc1N1CCN(CC2CC2)CC1` [compound 959, N-(5-((6-((S)-3-benzylisoxazolidine-2-yl)pyrimidine-4-yl)amino)-2-(4-(cyclopropylmethyl)piperazine-1-yl)-4-methoxyphenyl) acrylamide], the “Ba/F3 (NPH) Activity” value was “A (GI50 < 50 nM)”.
